The structures appear in SMILES notation.

The data set can be described thus: gradient 5% acetonitrile 3 min, to 50% in 2 min, to 85% in 15 min, held 3 min, 100 µL/min. Conditions: column: Zorbax Extend-C18 2.1 x 50 mm; eluents: water / acetonitrile, 0.1% formic acid. The method, boiled down: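 Data were gathered over 3 months by HPLC coupled to a quadrupole time-of-flight mass spectrometer, operated in positive and negative ionization mode. Mixtures of ~100 pure standards ran on a Zorbax Extend-C18 column (2.1 × 50 mm, 1.8 μm) at 100 μL/min, with water and acetonitrile each containing 0.1% formic acid and dead and dwell volumes of 40 μL and 900 μL. Retention time was read from adduct peaks picked by computer and checked manually.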
The compound `Cn1ncc2c(N3CCCC3)nc(C(=O)NCc3ccc(Cl)cc3)nc21` came in with an RP-LC retention time of 858 s.

Compound `CCn1cc2c3c(cccc31)CN(C(=O)CCc1ccccc1)CC2` had an RP-LC retention time of 1050 s. On to `CCCNC(=O)C1CCN(c2ccc(SCC(=O)NCc3ccc(OC)cc3)nn2)CC1`, for which the RP-LC retention time worked out at 621 s. Turning to `O=C(CCc1nc(-c2ccc(N3CCCC3)cc2)no1)Nc1ccc(Br)cc1F`, the RP-LC retention time stood at 1220 s. In turn, `CCCn1ccc2oc(C)c(C(=O)NCc3ccc(C(C)C)cc3)c2c1=O` came in with an RP-LC retention time of 786 s. Take `Cc1[nH]c(C(=O)N2CCC(CC(=O)NCCCN3CCCC(C)C3)CC2)c(C)c1C` (centres undefined): the RP-LC retention time is 610 s.

Consider `Cc1ccccc1-c1noc(Cn2cnc3c(cnn3-c3ccc(Br)cc3)c2=O)n1`, for which the RP-LC retention time was 1200 s.

The compound `CCc1ccccc1S(=O)(=O)N1CCN(c2nc3ccncc3n(C(C)C)c2=O)CC1` showed an RP-LC retention time of 632 s.

`c1ccc2sc(C3(N4CCCC4)CCCCC3)cc2c1` displayed an RP-LC retention time of 799 s. As to `O=C(NC1CC1)c1cc2cc(Br)ccc2[nH]1`, the RP-LC retention time came out at 817 s. `COC(=O)C1=CN(c2cccc(F)c2)c2ccccc2S1(=O)=O` returned an RP-LC retention time of 796 s. `Cc1c(C(=O)NC2CC2)cnn1-c1ccc(-c2nc(C3CC3)no2)cn1` displayed an RP-LC retention time of 825 s. In the case of `COC(=O)c1ccc(NC(=O)C2CCN(S(=O)(=O)c3c(C)nn(-c4ccccc4)c3C)CC2)cc1`, the RP-LC retention time worked out at 955 s. In turn, `COc1ncccc1CNC(=O)Cc1ccsc1` had an RP-LC retention time of 610 s.

On to `O=C(Cn1cccc(-c2nc(-c3ccc(Br)cc3)no2)c1=O)NC1CCCC1`, for which the RP-LC retention time was determined as 896 s.

For the compound `CCc1ccc(NC(=O)C2CCN(S(=O)(=O)c3cc(-c4noc(CC)n4)cs3)CC2)cc1`, the RP-LC retention time was 660 s. On to `Cc1ccccc1Cn1cc(C(=O)Nc2cccc(Br)c2)ccc1=O`, for which the RP-LC retention time worked out at 877 s. `CCOc1ccccc1CNC(=O)C1CCCN(c2nccnc2Sc2ccccc2)C1` (centres undefined) gave an RP-LC retention time of 1110 s. As for `COc1cccc(C(O)CN2CCN(c3ccc(F)cc3)CC2)c1` (centres undefined), the figure is 660 s; as for `COc1ccc(S(=O)(=O)NCCCn2ccnc2)cc1C(C)(C)C`, 589 s; as for `O=C(c1noc2c1CCCCC2)N1CCN(Cc2ccc3c(c2)OCO3)CC1`, 665 s. The compound `COc1ccc(Cn2c(=O)n(C(C)C)c(=O)c3oc4ccccc4c32)cc1` showed an RP-LC retention time of 976 s.

`O=c1ccc(-c2ccc3c(c2)OCO3)nn1Cc1nc(-c2ccc(F)cc2)no1` yielded an RP-LC retention time of 988 s. Compound `Cc1ccc(NC(=O)c2csc(-c3ccc(N4CCCC4)nc3)n2)c(C)c1` returned an RP-LC retention time of 813 s. As for `CCOc1ccccc1NC(=O)N1CCCC1c1nc(-c2ccccc2OC)no1` (centres undefined), the figure is 809 s; as for `CC1Oc2ccc(S(=O)(=O)N3CCC(C(=O)N4CCCc5ccccc54)CC3)cc2NC1=O` (centres undefined), 891 s. `CCOc1ccc(-c2noc(N3CCC(C(=O)N4CCN(C)CC4)CC3)n2)cc1OC` displayed an RP-LC retention time of 626 s. Regarding `CCCN1CCN(CCNC(=O)C2CCCN(c3ncc(-c4cccc(F)c4)cn3)C2)CC1` (centres undefined), the RP-LC retention time stood at 641 s.

The compound `CCc1nnc(-c2ccc3ccn(CC(=O)NCc4cc(OC)ccc4OC)c3c2)o1` registered an RP-LC retention time of 793 s. `Cn1c(N2CCCCS2(=O)=O)nc(C(=O)NCc2ccc(F)cc2)c(O)c1=O`: the RP-LC retention time stood at 864 s. In the case of `CCn1c(=O)c(N2CCCC(C(=O)N3CCN(c4ccc(F)cc4)CC3)C2)nc2ccccc21` (centres undefined), the RP-LC retention time amounted to 1090 s. As for `Cn1nc(-c2nc(-c3ccccc3)no2)c2c1CCN(C(=O)NC1CCCCC1)C2`, the figure is 914 s. As for `O=C1Nc2cc(C(=O)N3CCC(N4CCCCC4)CC3)ccc2N2CCCCC12` (centres undefined), the figure is 581 s; as for `CC(C)(C)OC(=O)N1CCN(c2ncnc(N)c2[N+](=O)[O-])CC1`, 691 s; as for `O=C(CCc1conc1-c1ccccc1)NCc1ccc2c(c1)OCO2`, 806 s. In the case of `CC(C)c1ccc(C(=O)N2CCC(COc3ccc(C(=O)NC4CC4)cc3)CC2)cc1`, the RP-LC retention time was determined as 947 s. The compound `COc1ccc(Cl)cc1NC(=O)N1CCN(CCn2c(C(F)(F)F)nc3cccnc32)CC1` gave an RP-LC retention time of 696 s. `O=C(Cc1c[nH]c2ccccc12)N1CCc2cc(-c3ccno3)ccc21` had an RP-LC retention time of 825 s. `CC1(C(=O)NCc2ccccc2)CCCN(C(=O)Nc2ccc(Cl)cc2)C1` (centres undefined) gave an RP-LC retention time of 962 s. In turn, `COC(=O)C1=CN(C2CC2)c2cc(N3CCN(c4ccc(OC)cc4)CC3)c(F)cc2S1(=O)=O` registered an RP-LC retention time of 856 s. As for `NC(=O)c1nnn(Cc2ccccc2F)c1N`, the figure is 596 s; as for `Cc1nn(-c2ccc(-c3ccccc3)nn2)c(C)c1S(=O)(=O)N1CCOCC1`, 887 s. The compound `COCCCNC(=O)C1CCN(C(=O)c2ncn3c2COC(c2ccc(OC)cc2)C3)CC1` (centres undefined) registered an RP-LC retention time of 651 s. As for `CCCN1C(=O)c2c(C(=O)Nc3ccccc3Cl)ncn2CC1(C)C(=O)NC1CCCC1` (centres undefined), the figure is 822 s. `CCn1cc(S(=O)(=O)N2CCC3(CC2)CN(Cc2ccc(OC)cc2)C3=O)cn1` came in with an RP-LC retention time of 729 s. In turn, `COCCN1CCn2cc(S(=O)(=O)Nc3ccc(C)cc3C)cc2C1=O` showed an RP-LC retention time of 730 s. Compound `CCn1cc(C(=O)Nc2ccc(Br)cc2F)c(=O)c2ccc(C)nc21` returned an RP-LC retention time of 1290 s. In turn, `CN1CCN(C(CNS(=O)(=O)c2ccccc2F)c2ccsc2)CC1` (centres undefined) gave an RP-LC retention time of 570 s. `Cc1cccc(-c2ncccc2CNS(=O)(=O)Cc2ccc(Cl)cc2)c1`: the RP-LC retention time was found to be 765 s. Compound `COc1cccc(CNC(=O)CCc2nc3c(C)cccc3c(=O)n2C)c1OC` showed an RP-LC retention time of 791 s. Take `Cc1oc(-c2[nH]ncc2C(=O)N(C)C)cc1S(=O)(=O)Nc1ccc(Cl)cc1F`: the RP-LC retention time is 714 s. `O=C(c1cncc(Br)c1)N1CCN(c2ccc(-c3ccco3)nn2)CC1` returned an RP-LC retention time of 603 s.

For the compound `CCCc1cc(N2CCN(C(=O)c3cccnc3)CC2)nc2nnc(CC)n12`, the RP-LC retention time was 580 s. Consider `Cc1ccc(NC(=O)N2CCC3(C2)c2nc[nH]c2CCN3C)cc1` (centres undefined), for which the RP-LC retention time came to 554 s. In turn, `CC(=O)c1cccc(NC(=O)Cn2cncc(C)c2=O)c1` came in with an RP-LC retention time of 598 s. As to `O=C(NCc1ccccc1F)C1CCN(C(=O)c2ncn3c2COC(c2ccc(Cl)cc2)C3)CC1` (centres undefined), the RP-LC retention time was found to be 819 s. `COc1ccc(-n2c(=O)c3sccc3n(Cc3nc(-c4ccccc4C)no3)c2=O)cc1` displayed an RP-LC retention time of 1000 s. Compound `O=C(CN1CCN(Cc2ccc(F)cc2)C(=O)C1=O)NCc1ccc2c(c1)OCO2` yielded an RP-LC retention time of 780 s. Take `CCCN(C)C(=O)c1cc2c(s1)N(CC1CC1)CCCC2`: the RP-LC retention time turned out to be 1160 s. As for `Cc1ccccc1CNC(=O)C1(C)Oc2cccnc2N(C)C1=O` (centres undefined), the figure is 786 s; as for `O=C(O)c1cccc(Nc2c(-c3cccc(O)c3)nc3cnccn23)c1`, 633 s; as for `Cc1ccc(C)c(NC(=O)NCCc2cn(C)c3ncccc23)c1`, 704 s.

Compound `CCCN(CC1CCOC1)C(=O)NCCc1ccccc1` (centres undefined) returned an RP-LC retention time of 791 s. For `CCCCN(C)C(=O)Cn1nc(C)c2sc(-c3ccccc3)nc2c1=O`, the RP-LC retention time turned out to be 865 s. `O=C(CCc1ccc2cc[nH]c2c1)NCc1cccs1`: the RP-LC retention time was determined as 806 s.

For the compound `CCOC(=O)N1CCN(C(=O)c2cccc([N+](=O)[O-])c2C)CC1`, the RP-LC retention time amounted to 695 s. The compound `CC(NC(=O)C1CC(=O)N(c2ccc3c(c2)CCN3C(=O)C2CC2)C1)c1ccccc1` (centres undefined) displayed an RP-LC retention time of 740 s. `Cc1ccc(-c2ccc(=O)n(Cc3nc(-c4ccc(OC(C)C)cc4)no3)n2)cc1` had an RP-LC retention time of 597 s. As to `COc1ccc2c(c1)-c1nc(NC(=O)c3ccccc3C)sc1CC2`, the RP-LC retention time was determined as 1130 s. In turn, `Cc1ccccc1NC(=O)N1CCCC1c1nc(-c2cccc(Cl)c2)no1` (centres undefined) displayed an RP-LC retention time of 1050 s. Compound `Cc1nc2c(ccc3nc(NC(=O)c4ccc5c(c4)OCCO5)sc32)s1` displayed an RP-LC retention time of 858 s. `CCOC(=O)C1CCN(c2cc3c(cc2NC(=O)NCCC(C)C)n(C)c(=O)n3C)CC1` came in with an RP-LC retention time of 823 s.

As for `Cc1noc(C)c1S(=O)(=O)NCC1CCN(S(=O)(=O)C2CC2)CC1`, the RP-LC retention time stood at 709 s.

Compound `O=C(Nc1nc(-c2ccccc2)cs1)c1sc2cc([N+](=O)[O-])ccc2c1Cl` showed an RP-LC retention time of 1260 s. For `Oc1cc2c(cc1O)[C@H]1c3ccccc3CN[C@@H]1CC2`, the RP-LC retention time was 628 s. As for `COC(=O)CSCC(=O)Nc1cc(C(F)(F)F)ccc1Cl`, the figure is 613 s.

On to `Cc1ccc(N2CCN(Cc3nc4nc(C)cc(N5CCOCC5)n4n3)CC2)cc1`, for which the RP-LC retention time was found to be 636 s.

`COCCn1ccc2nc(C)c(C(=O)NCc3cccs3)cc2c1=O` yielded an RP-LC retention time of 656 s. Compound `O=C(CC1CCN(C(=O)Nc2cccc(C(F)(F)F)c2)CC1)N1CCCCC1` had an RP-LC retention time of 878 s.

For the origin of these results see the METLIN SMRT retention time set (Domingo-Almenara et al. 2019).
